In patent US11427544B2, “Histone deacetylase 6 inhibitors and use thereof” (TAIPEI MEDICAL UNIVERSITY, priority 2016, dated 2022):

Tests used:
[1] = molecular target: T1, HDAC6 (Homo sapiens, UniProt Q9UBN7); assay: Fluorogenic HDAC assay, HDAC6; type: biochemical
T1 construct: purchased BPS Bioscience Corp
T1 sequence (Q9UBN7 1-1215): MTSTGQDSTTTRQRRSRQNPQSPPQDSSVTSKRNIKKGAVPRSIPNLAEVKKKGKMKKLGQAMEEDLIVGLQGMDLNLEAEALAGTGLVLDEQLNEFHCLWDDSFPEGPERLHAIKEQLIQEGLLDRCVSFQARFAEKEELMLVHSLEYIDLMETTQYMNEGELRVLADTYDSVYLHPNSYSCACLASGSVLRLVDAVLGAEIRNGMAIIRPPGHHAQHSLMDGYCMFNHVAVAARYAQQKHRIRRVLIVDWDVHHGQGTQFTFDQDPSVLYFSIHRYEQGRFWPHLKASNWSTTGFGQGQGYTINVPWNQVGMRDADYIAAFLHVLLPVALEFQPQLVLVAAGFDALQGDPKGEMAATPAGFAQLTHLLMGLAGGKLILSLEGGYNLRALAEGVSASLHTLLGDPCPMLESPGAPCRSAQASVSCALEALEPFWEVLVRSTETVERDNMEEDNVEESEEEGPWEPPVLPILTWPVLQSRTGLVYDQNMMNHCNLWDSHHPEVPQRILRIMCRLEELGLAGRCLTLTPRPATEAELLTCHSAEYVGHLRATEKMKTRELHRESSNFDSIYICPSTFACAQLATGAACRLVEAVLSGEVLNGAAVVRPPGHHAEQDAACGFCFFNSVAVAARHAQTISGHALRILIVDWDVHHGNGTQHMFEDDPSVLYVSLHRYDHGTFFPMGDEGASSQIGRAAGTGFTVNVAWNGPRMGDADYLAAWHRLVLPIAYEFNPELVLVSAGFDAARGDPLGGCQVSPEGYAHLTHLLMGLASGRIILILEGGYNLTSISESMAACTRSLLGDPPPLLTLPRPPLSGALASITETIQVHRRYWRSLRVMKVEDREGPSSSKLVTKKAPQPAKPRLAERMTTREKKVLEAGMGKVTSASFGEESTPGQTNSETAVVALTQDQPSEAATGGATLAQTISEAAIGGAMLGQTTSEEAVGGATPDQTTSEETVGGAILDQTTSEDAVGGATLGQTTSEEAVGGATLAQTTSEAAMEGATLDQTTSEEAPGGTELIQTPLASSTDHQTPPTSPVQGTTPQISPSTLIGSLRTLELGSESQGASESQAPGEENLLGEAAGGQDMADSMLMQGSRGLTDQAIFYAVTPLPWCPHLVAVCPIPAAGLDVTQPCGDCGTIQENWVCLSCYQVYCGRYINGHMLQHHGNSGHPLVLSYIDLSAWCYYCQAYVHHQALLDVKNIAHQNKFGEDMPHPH
From the text: Of note, there are eighteen human HDACs. Eleven of them, designated as HDAC1-11, are zinc-dependent. Seven of them, designated as Sirt1-7, are NAD+-dependent.
Fluorogenic HDAC assay kits were used to assess the ability of HDAC inhibitors to inhibit deacetylation of lysine residues on a substrate by recombinant proteins HDAC1, 3, 4, 5, 6, 7, 8, 9 and Sirt1 according to the manufacturer's instructions (BPS Bioscience Corp., San Diego, Calif., USA).

[2] = tested on: MDA-MB-231 Breast cancer cell line; assay: Antiproliferative activity, MDA-MB-231; type: cell-based, human; details: Homo sapiens, MDA-MB-231, MDA-MB-231
Protocol: A study was conducted to evaluate the inhibitory activity of compounds of Formula (I) in inhibiting HDAC6, antiproliferative activity of test compounds in suppressing cancer cell growth, and selectivity of inhibiting HDAC6 over other HDAC isoforms.
The study was performed according to the protocol reported in Hsieh et al., Cell Death and Disease, 2014, April; 5:e1166.
Shown in Table 2 below are antiproliferative activities (measured by their half maximal concentration for inhibiting cell growth, i.e., GI50) of the test compounds against various cancer cell lines.

[3] = tested on: acetyl-a-tubuline expression in RPMI8226, U266, and NCI-H929; assay: Acetyl-a-tubuline expression in multiple myeloma cell lines (immunoblotting); type: cell-based, human
Protocol: A study was conducted to evaluate the activity of a compound of Formula (I) in increasing acetyl-a-tubuline expression in human multiple myeloma cell lines (RPMI8226, U266, and NCI-H929).
Cells (1×10^6) were incubated for 10 minutes at 4° C. in a lysis buffer solution in a culture vessel, and then scraped off the culture vessel, incubated on ice for another 10 minutes, and centrifuged at 17,000×g for 30 minutes at 4° C. Protein samples (80 μg) were electrophoresed on SDS gels and transferred onto a nitrocellulose membrane, which was blocked by incubation with 5% fat-free milk in phosphate-buffered saline (PBS) for 30 minutes at room temperature. Immunoblotting was performed by overnight incubation at 4° C. with primary antibodies in PBS, followed by incubation for 1 hour at room temperature with horseradish peroxidase (HRP)-conjugated secondary antibodies, then bound antibodies were measured using enhanced chemiluminescence (ECL) reagent (Advansta Corp., Menlo Park, Calif., USA) and exposure to photographic film.
The study was performed according to the protocol reported in Yang et al., Journal of Molecular Medicine, 2014, November; 92(11):1147-1158.

[4] = tested on: polyubiquited proteins; assay: Accumulation of polyubiquited proteins; type: cell-based; details: dose-dependent
Protocol: A study was conducted to evaluate the activity of a compound of Formula (I) in inhibiting HDAC6-dynein binding and inducing accumulation of polyubiquited proteins.
Cell lysates were immunoprecipitated overnight at 4° C. with 1 μg of dynein antibody and A/G-agarose beads. The precipitated beads were washed three times with 1 mL of an ice-cold cell lysis buffer solution. The resulting immune complex was resolved by 10% SDS-PAGE gel electrophoresis, followed by immunoblotting assay using anti-HDAC6 Ab.
The study was performed according to the protocol reported in Chen et al., Journal of Immunology, 2008, 181(12):8441-8449.

[5] = tested on: APP in pCAX APP 695 plasmid-transfected Neuro 2a cells; assay: Amyloid precursor protein (APP) levels, Western blot; type: cell-based; details: pCAX APP 695 transfected neuro 2a cells; 0.1-10 μM, 24 hours
Protocol: (§1) A study was conducted to evaluate the effect of compounds of Formula (I) in amyloid precursor protein (APP) levels and Aβ42 production.
Neuro 2a cells (1×10^6) in 6-well plates were transfected with pCAX APP 695 plasmid for 24 hours, then incubated for another 24 hours with Compound 12, Compound 28, or tubasatin A (0.1-10 μM). Cells were then harvested and cell lysates were prepared for Western blot analysis of the APP proteins.

[6] = tested on: Aβ42 production in pCAX APP 695 plasmid-transfected Neuro 2a and SH—SYSY cells; assay: Aβ42 production in cell culture supernatants; type: cell-based; details: pCAX APP 695 transfected Neuro 2a and SH—SYSY cells; 0.1-10 μM, 24 hours
Protocol: as §1
Moreover, neuro 2a or SH—SYSY cells (1×10^5) were transfected with pCAX APP 695 plasmid for 24 hours, followed by incubation with Compound 12 or Compound 28 (0.1-10 μM) for another 24 hours. Cell culture supernatants were assayed for Aβ42 production.

With `O=C(NO)c1ccc(CNc2cccc3cccnc23)cc1` [Compound 28, N-hydroxy-4-((quinolin-8-ylamino)methyl)benzamide] the IC50 [1] was 4.41 nM, the GI50 [2] was 1890 ± 330 nM and the acetyl-a-tubuline expression [3] was “increasing acetyl-a-tubuline expression in a dose-dependent manner”. For the same compound, the “accumulation of polyubiquited proteins” value [4] was “induced accumulation of polyubiquited proteins”, the APP expression [5] was “markedly reduced the APP expression” and the Aβ42 production [6] was “decreased Aβ42 production”.
